Data reported in US5132320A, “Squalene synthetase inhibitors” (Merck & Co., Inc., priority 1990, dated 1992).
pIC50: −log10 of the molar value.

Experiments:
Fus. oxysporum MF4014 = assay: antifungal microtiter dilution assay, filamentous fungi (MIC); type: cell-based; details: Fusarium oxysporum, 42 hours, 28° C., read-out: Minimum Inhibitory Concentration
Procedure: The compounds are particularly active towards filamentous fungi and yeasts including Candida albicans and Crypt. neoformans. The sensitivity of filamentous fungi and yeast was determined using inhibitor dilution assays in microtiter format. The compounds were dissolved in DMSO at 2 mg/ml and serially diluted in 0.1M phosphate buffer, pH 7.0 in the microtiter dish from 100 to 0.006 μg/ml. A standardized spore suspension for testing the filamentous fungi was prepared by inoculating Antibiotic Medium #3 containing 1.5% agar with spores such that 1.5×10^3 colony forming units were added per well. The microtiter wells were filled with 50 μl of buffer containing compound and 50 μl of inoculated medium. The sensitivity of yeasts was determined by inoculating yeast nitrogen base containing 1% dextrose (YNB/G) with aliquots of an overnight yeast culture grown in Yeast Morphology (YM) media at 35° C. and diluting in YNB/G to yield a final concentration of 1.5-7.5×10^3 colony forming units/well. One hundred fifty μl of inoculated media was added per well. To test the sensitivity of yeast, compound was solubilized in 10 percent aqueous DMSO at 2.56 mg/ml. The compound was diluted serially in YNB/G from 128 to 0.06 μg/ml. The wells were filled with 150 μl of drug containing media. […]

Squalene Synthetase = target: T1, Squalene Synthetase (Rattus norvegicus, UniProt Q02769); assay: squalene synthetase assay (rat liver microsomes, [4-14C]farnesyl-pyrophosphate); type: biochemical; details: 30° C., 20 minutes, pH 7.5
T1 construct: from tissue; host or cells: liver microsomes of male Charles River CD rats fed 0.1% lovastatin for 4 days
T1 sequence (Q02769 1-416): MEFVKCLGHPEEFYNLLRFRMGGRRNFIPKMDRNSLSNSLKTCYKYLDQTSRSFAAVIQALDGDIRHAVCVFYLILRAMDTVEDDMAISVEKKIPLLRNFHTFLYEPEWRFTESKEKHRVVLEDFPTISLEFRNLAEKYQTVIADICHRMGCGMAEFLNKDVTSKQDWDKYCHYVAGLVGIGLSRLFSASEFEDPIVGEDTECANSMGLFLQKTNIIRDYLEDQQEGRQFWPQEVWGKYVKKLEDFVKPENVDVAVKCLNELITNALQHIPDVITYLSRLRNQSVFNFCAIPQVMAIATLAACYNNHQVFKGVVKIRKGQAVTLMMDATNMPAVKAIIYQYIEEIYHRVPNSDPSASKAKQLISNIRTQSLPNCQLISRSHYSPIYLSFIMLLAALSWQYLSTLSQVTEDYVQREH
Procedure: The intrinsic squalene synthetase inhibitory activity of representative compounds of this invention was measured by the standard in vitro protocol described below:
PREPARATION OF MICROSOMES
Male, Charles River CD rats (120 to 150 g) were fed a diet containing 0.1% lovastatin for 4 days. The livers from these rats were homogenized in 5 volumes (ml/g) of ice cold 50 mM HEPES (4-(2-hydroxyethyl)-1-piperazine-ethanesulfonic acid), 5 mM EDTA (ethylenediaminetetraacetic acid) pH 7.5 with a Potter-Elvehjem type tissue grinder. The homogenate was centrifuged twice at 20,000×g for 15 minutes at 4° C., discarding the pellet each time. The supernatant was then centrifuged at 100,000×g for 1 hour at 4° C. The resulting microsomal pellet was resuspended in a volume of the above homogenizing buffer equal to one-fifth the volume of the original homogenate. This microsomal preparation has a protein concentration of about 7 mg/ml. The microsomal suspensions were stored in aliquots at -70° C. Squalene synthetase activity in these aliquots is stable for at least several months.
Partial Purification of Prenyl Transferase
Prenyl transferase was purified to use in the enzymatic synthesis of radiolabelled farnesyl pyrophosphate. […]

Row | MIC (Fus. oxysporum MF4014) [µg/mL] | pIC50 (Squalene Synthetase) | Compound
1 | > 100 | 8.30 | CC=CCCCCC=CCCCCC(=O)OC1C(O)C2(CCC(C)C(O)C(C)CC=Cc3ccccc3)OC(C(=O)O)C(O)(C(=O)O)C1(C(=O)O)O2 (stereo not drawn) [Compound A]
2 |  | 5.30 | CC=CCCCCC=CCCCCC(=O)OC1C(O)C2(CCC(C)C(O)C(C)CC=Cc3ccccc3)OC(C(=O)OC)C(O)(C(=O)OC)C1(C(=O)OC)O2 (stereo not drawn) [Compound B]
